According to US5563145A, “Rapamycin 42-oximes and hydroxylamines” (American Home Products Corporation, priority 1994, dated 1996):
Read-outs that look alike come from different tables or passages of the source.

Experiments:
[1] = test system: cells from the thymus of normal BALB/c mice (T-cell proliferation); assay: comitogen-induced thymocyte proliferation procedure (LAF); format: cell-based; settings: for IC50: read-out: LAF IC50; for LAF ratio (compared with rapamycin): ratio >1: inhibited thymocyte proliferation to a greater extent than rapamycin; for LAF percent inhibition of T-cell proliferation: at 0.1 μM
Protocol: (§1) Immunosuppressive activity for representative compounds of this invention was evaluated in an in vitro standard pharmacological test procedure to measure the inhibition of lymphocyte proliferation (LAF) and in two in vivo standard pharmacological test procedures. The pinch skin graft test procedure measures the immunosuppressive activity of the compound tested as well as the ability of the compound tested to inhibit or treat transplant rejection. The adjuvant arthritis standard pharmacological test procedure measures the ability of the compound tested to inhibit immune mediated inflammation. The adjuvant arthritis test procedure is a standard pharmacological test procedure for rheumatoid arthritis. The procedures for these standard pharmacological test procedures are provided below.
The comitogen-induced thymocyte proliferation procedure (LAF) was used as an in vitro measure of the immunosuppressive effects of representative compounds. Briefly, cells from the thymus of normal BALB/c mice are cultured for 72 hours with PHA and IL-1 and pulsed with tritiated thymidine during the last six hours. Cells are cultured with and without various concentrations of rapamycin, cyclosporin A, or test compound. Cells are harvested and incorporated radioactivity is determined. Inhibition of lymphoproliferation is assessed as percent change in counts per minute from non-drug treated controls. For each compound evaluated, rapamycin was also evaluated for the purpose of comparison. An IC50 was obtained for each test compound as well as for rapamycin. […] The results obtained are provided as an IC50 and as the percent inhibition of T-cell proliferation at 0.1 μM. […] A positive ratio indicates immunosuppressive activity. […] Calculation of the ratio is shown below. [formula]

[2] = test system: pinch skin graft from male BALB/c donors transplanted to male C3H(H-2K) recipients; assay: in vivo pinch skin graft survival test procedure; parameters: species or system mice: male BALB/c donors, male C3 H(H-2K) recipients; settings: 4 mg/kg, i.p.; untreated control grafts usually rejected within 6-7 days
Protocol: as §1
Representative compounds of this invention were also evaluated in an in vivo test procedure designed to determine the survival time of pinch skin graft from male BALB/c donors transplanted to male C3 H(H-2K) recipients. The method is adapted from Billingham R. E. and Medawar P. B., J. Exp. Biol. 28:385-402, (1951). Briefly, a pinch skin graft from the donor was grafted on the dorsum of the recipient as a allograft, and an isograft was used as control in the same region. The recipients were treated with either varying concentrations of test compounds intraperitoneally or orally. Rapamycin was used as a test control. Untreated recipients serve as rejection control. The graft was monitored daily and observations were recorded until the graft became dry and formed a blackened scab. This was considered as the rejection day. The mean graft survival time (number of days ±S.D.) of the drug treatment group was compared with the control group. Results are expressed as the mean survival time in days.

[3] = test system: uninjected hind paw inflammation (immune mediated, Freund's Complete Adjuvant); assay: adjuvant arthritis standard pharmacological test procedure; format: in vivo, male inbred Wistar Lewis rats; settings: 2 mg/kg, oral, 7 doses, day 16; more negative = more potent
Protocol: as §1
The adjuvant arthritis standard pharmacological test procedure measures the ability of test compounds to prevent immune mediated inflammation and inhibit or treat rheumatoid arthritis. The following briefly describes the test procedure used. A group of rats (male inbread Wistar Lewis rats) are pre-treated with the compound to be tested (1 h prior to antigen) and then injected with Freud's Complete Adjuvant (FCA) in the right hind paw to induce arthritis. The rats are then orally dosed on a Monday, Wednesday, Friday schedule from day 0-14 for a total of 7 doses. Both hind paws are measured on days 16, 23, and 30. The difference in paw volume (mL) from day 16 to day 0 is determined and a percent change from control is obtained. The left hind paw (uninjected paw) inflammation is caused by T-cell mediated inflammation and is recorded as % change from control. The right hind paw inflammation, on the other hand, is caused by nonspecific inflammation. Compounds were tested at a dose of 2 mg/kg.

[4] = test system: Candida albicans; settings: in vitro and in vivo; cited from earlier work
[5] = test system: experimental allergic encephalomyelitis model; settings: a model for multiple sclerosis; cited from earlier work
[6] = test system: adjuvant arthritis model; settings: a model for rheumatoid arthritis; cited from earlier work
[7] = test system: formation of IgE-like antibodies; settings: in vivo; cited from earlier work
[8] = BALB/c mouse thymocytes, PHA and IL-1, 72 hours, tritiated thymidine last six hours

Molecule | IC50 [1, 8] | LAF ratio (compared with rapamycin) [1] | Skin graft survival (mean graft survival time ± S.D.) [2] | Percent change in adjuvant arthritis versus control (uninjected paw) [3] | also measured
42-Deoxy-42-oxorapamycin 42-[O-(phenylmethyl)]-oxime [Example 8] | 21.7 nM | 0.03 |  |  | 
42-Deoxy-42-oxorapamycin 42-[O-(prop-2-ynyl)]-oxime [Example 10] | 8.13 nM | 0.08 | 8.0 ± 1.1 days |  | 
42-Deoxy-42-oxorapamycin 42-[O-(pyridin-4-ylmethyl)]-oxime [Example 6] | 1.8 nM | 0.31 | 8.0 ± 0.9 days |  | 
CO[C@H]1C[C@@H]2CC[C@@H](C)[C@@](O)(O2)C(=O)C(=O)N2CCCC[C@H]2C(=O)O[C@H]([C@H](C)C[C@@H]2CCC(=NO)[C@H](OC)C2)CC(=O)[C@H](C)/C=C(\C)[C@@H](O)[C@@H](OC)C(=O)[C@H](C)C[C@H](C)/C=C/C=C/C=C/1C [Example 2, 42-Deoxo-42-(hydroxyimino)rapamycin] | 3.88 nM | 0.85 | 10.8 ± 0.4 days |  | 
CO[C@H]1C[C@@H]2CC[C@@H](C)[C@@](O)(O2)C(=O)C(=O)N2CCCC[C@H]2C(=O)O[C@H]([C@H](C)C[C@@H]2CCC(NO)[C@H](OC)C2)CC(=O)[C@H](C)/C=C(\C)[C@@H](O)[C@@H](OC)C(=O)[C@H](C)C[C@H](C)/C=C/C=C/C=C/1C (stereo partly shown) [Example 3, 42-Deoxo-42-(hydroxyamino)rapamycin] | 5.6 nM | 0.18 | 9.6 ± 0.0 days | -84% | 
CO[C@H]1C[C@@H]2CC[C@@H](C)[C@@](O)(O2)C(=O)C(=O)N2CCCC[C@H]2C(=O)O[C@H]([C@H](C)C[C@@H]2CCC(=NOC(N)=O)[C@H](OC)C2)CC(=O)[C@H](C)/C=C(\C)[C@@H](O)[C@@H](OC)C(=O)[C@H](C)C[C@H](C)/C=C/C=C/C=C/1C [Example 4, 42-Deoxy-42-oxorapamycin-42-O-carbamoyloxime] | 2 nM | 0.25 | 9.5 ± 1.1 days |  | 
CO[C@H]1C[C@@H]2CC[C@@H](C)[C@@](O)(O2)C(=O)C(=O)N2CCCC[C@H]2C(=O)O[C@H]([C@H](C)C[C@@H]2CCC(=NOCc3ccccn3)[C@H](OC)C2)CC(=O)[C@H](C)/C=C(\C)[C@@H](O)[C@@H](OC)C(=O)[C@H](C)C[C@H](C)/C=C/C=C/C=C/1C [Example 5, 42-Deoxy-42-oxorapamycin 42-[O-(pyridin-2-ylmethyl)]-oxime] | 1.5 nM | 0.40 | 7.8 ± 0.8 days | -53% | 
COC1CC2CCC(C)C(O)(O2)C(=O)C(=O)N2CCCCC2C(=O)OC(C(C)CC2CCC(=NOC(C)(C)C)C(OC)C2)CC(=O)C(C)C=C(C)C(O)C(OC)C(=O)C(C)CC(C)C=CC=CC=C1C (stereo not shown) [Example 7, 2-Deoxy-42-oxoxapamycin 42-[O-(tert-butyl)]-oxime] |  |  |  |  | LAF percent inhibition of T-cell proliferation [1]: 49%
C=CCON=C1CCC(CC(C)C2CC(=O)C(C)C=C(C)C(O)C(OC)C(=O)C(C)CC(C)C=CC=CC=C(C)C(OC)CC3CCC(C)C(O)(O3)C(=O)C(=O)N3CCCCC3C(=O)O2)CC1OC (stereo not shown) [Example 9, 42-Deoxy-42-oxorapamycin 42-(O-allyl)-oxime] |  |  |  |  | LAF percent inhibition of T-cell proliferation [1]: 43%
CO[C@H]1C[C@@H]2CC[C@@H](C)[C@@](O)(O2)C(=O)C(=O)N2CCCC[C@H]2C(=O)O[C@H]([C@H](C)C[C@@H]2CC[C@@H](O)[C@H](OC)C2)CC(=O)[C@H](C)/C=C(\C)[C@@H](O)[C@@H](OC)C(=O)[C@H](C)C[C@H](C)/C=C/C=C/C=C/1C [rapamycin] |  |  | 11.67 ± 0.63 days | -70% | IC50 ([1]; Mus musculus, T-cell): 0.5 to 3.3 nM; antifungal activity, particularly against Candida albicans [4]: antifungal activity, particularly against Candida albicans; effect in experimental allergic encephalomyelitis model [5]: effective; effect in adjuvant arthritis model [6]: effective; inhibition of formation of IgE-like antibodies [7]: effectively inhibited
